From article PMC13576449, “Small-Molecule Activators of PRMT1: Discovery, SAR Analyses, and Proapoptotic Effects in Pancreatic Cancer Cells” (Journal of Medicinal Chemistry, 2026)
pEC50: −log10 of the molar value.

Legend:
FLAG-tagged PRMT1 = biological target: T1, FLAG-tagged PRMT1 (Rattus norvegicus, UniProt Q63009); assay: Fluorescence-based in vitro PRMT assay (F-PRMT assay), PRMT1; format: biochemical; conditions: for activation at 100 µM: read-out: enhancement (increase) of PRMT1 enzymatic activity
T1 construct: Full-length FLAG-tagged PRMT protein; made in house; host or cells: Sf9 insect cells (baculovirus)

PANC-1 cells = assay: Annexin V/PI flow cytometry apoptosis assay, PANC-1; format: cell-based, human; conditions: TR-07 10 μM; for gemcitabine-induced apoptosis, AV/PI flow cytometry, co-treatment: TR-033 5 µM, TR-036 10 µM, ICTR-059 5 µM, after 24 h gemcitabine 1 μM, 48 h, vs gemcitabine alone
Method: 6 Effect of small-molecule modulators on gemcitabine-induced apoptosis and tumor growth of PDAC cells. […] After 2 h, gemcitabine (GEM) was added at increasing concentrations (10 and 25 nM) or not (−) for another incubation of 72 h. Subsequently, the luminescence-based caspase3/7 assay was performed. The activity of caspase 3/7 in treated cells was normalized to the activity measured in untreated cells (dark gray bar), which was set to 1 (mean SD, n = 6 for PANC-1 and n = 4 for PaTu8988T; *: p ≤ 0.05, **: p ≤ 0.01, ***: p ≤ 0.001, using the student t-test). […] After 24 h, gemcitabine (GEM, 1 μM) was added (+) or not (−) for another incubation of 48 h. Subsequently, the apoptotic cell fraction was quantified in % by flow cytometry using FITC-labeled Annexin V (AV) and propidium iodide (PI) staining (in B: mean ± SD, n = 6 for PANC-1 and n = 5 for PaTu8988T; **: p ≤ 0.01, ***: p ≤ 0.001, ****: p ≤ 0.0001, using the student t-test). […] Viable cells are AV/PI double-negative (AV–/PI–, lower left quadrant, Q4), early apoptotic cells are AV single-positive (AV+/PI– upper left quadrant, Q1), late apoptotic cells are AV/PI double-positive (AV+/PI+, upper right quadrant, Q2), and necrotic cells are PI single-positive (AV–/PI+, lower right quadrant, Q3). The sum of early and late apoptotic cell numbers ([…] in %) is indicated in red. D-G: The workflow of the PDAC xenograft experiments in mice is depicted in D. PANC-1 cells (2 × 10^6 cells/mouse) were subcutaneously (s.c.) injected in the right flank of female athymic nude mice. Small tumor nodules appeared 6 days post-engraftment. […] Tumor volumes were measured every second day using a digital caliper. […] At the end of the 2 weeks, mice were sacrificed and tumors were dissected (F).
For quantification of apoptosis by Fluorescence Activated Cell Sorting (FACS), PANC-1 and PaTu8988T cells were seeded in 6-well plates (250 × 10^3 cells/well) and cultured in the absence or presence of compounds. After 24 h, gemcitabine was added or not for another 48 h. After harvesting and washing, unfixed cells (0.5–1 × 10^6) were incubated with FITC-labeled Annexin V and/or PI (BD Pharmingen) according to the manufacturer’s instructions. All samples were analyzed using a BD FACSCalibur flow cytometer (BD Bioscience). Data were acquired using the CellQuestPro program and analyzed with the FlowJo (FlowJo LLC) software. […]
induced apoptosis in PDAC cell lines.
After 24 hours, gemcitabine (GEM, 1 µM) was added (+) or not
(-) for another incubation of 48 hours. Subsequently, the apoptotic cell fraction was assessed by flow cytometry using FITC-labeled Annexin V (AV) and propidium iodide (PI) staining and quantified in % (mean ± SD, n=3-4; ns: not significant, *: p ≤0.05, **: p ≤0.01, ***: p ≤0.001, ****: p ≤0.0001, using the student t-test).

ADMA in PANC-1 cells = assay: Western blot of global ADMA levels in PANC-1 cells; format: cell-based, human; conditions: PANC-1, 72 h, 10 and 20 μM (TR-033 2.5 and 5 μM), vs DMSO
Method: As negative control (Ctrl (−)), PRMT1 enzymes and [^14C-methyl]-SAM were incubated without substrates. Subsequently, samples were separated by SDS-PAGE, blotted, and analyzed by autoradiography. Substrates (H2A, H4 or GST-GAR) and molecular weights (kDa) of the protein marker are indicated. Black lines designate composite images, assembled from the same blots and exposure times. The methylation signals of the substrates were densitometrically quantified, and expressed relative to the DMSO-treated control, as indicated by the numbers below the autoradiographs. Representative results are depicted, with quantification graphs (below the autoradiographs in A and B) summarizing biological replicates. […] Subsequently, GST-GAR was immobilized on glutathione-beads and PRMT1 activity was measured by quantifying the incorporation of ^14C-methyl groups (in cpm) using liquid scintillation counting. […] Cell viability was quantified using the CellTiter-Glo assay. […] Subsequently, whole-cell extracts were prepared and analyzed by Western blot using antibodies against ADMA, ACTIN (ACT), and VINCULIN (VINC), of which the latter two stainings served as loading controls. […] All the ADMA signals per lane were densitometrically quantified, normalized to the signal of the respective loading control and expressed relative to the DMSO-treated control, as indicated by the numbers below the immunostainings. […]

[1] = 100 μM compound, increase over solvent-treated activity

T1 sequence (Q63009 whole entry): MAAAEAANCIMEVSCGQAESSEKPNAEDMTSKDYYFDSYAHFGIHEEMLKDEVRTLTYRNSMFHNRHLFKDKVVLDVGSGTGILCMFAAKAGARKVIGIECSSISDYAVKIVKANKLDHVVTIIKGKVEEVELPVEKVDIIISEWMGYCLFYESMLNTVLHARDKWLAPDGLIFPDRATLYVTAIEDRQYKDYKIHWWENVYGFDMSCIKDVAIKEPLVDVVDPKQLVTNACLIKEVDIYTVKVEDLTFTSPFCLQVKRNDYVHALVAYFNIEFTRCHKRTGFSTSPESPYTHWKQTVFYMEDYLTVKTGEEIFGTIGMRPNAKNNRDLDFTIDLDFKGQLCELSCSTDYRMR

Compound: (Z)-2-(2-{[(1,3-Dioxo-2,3-dihydroisoquinolin-4(1H)-ylidene)methyl]amino}phenyl)-N,N-dimethylethan-1-aminium chloride [ICTR-059]
- PRMT1 activity compared to the solvent-treated activity of 100% (FLAG-tagged PRMT1; 100 μM compound): up to 200%
- gemcitabine-induced apoptosis, AV/PI flow cytometry, co-treatment (PANC-1 cells): had no effect

Compound: CCN(CC)Cc1cccc(N/C=C2\C(=O)NC(=O)c3ccccc32)c1.Cl [TR-036, (Z )-N-(3-{[(1,3-Dioxo-2,3-dihydroisoquinoline-4(1 H )-ylidene)methyl]amino}benzyl)-N -ethylethanaminium chloride]
- PRMT1 activity compared to the solvent-treated activity of 100% (FLAG-tagged PRMT1; 100 μM compound): 215–225%
- activation at 100 µM (FLAG-tagged PRMT1; [1]): ≥ 60%
- gemcitabine-induced apoptosis, AV/PI flow cytometry, co-treatment (PANC-1 cells): rather diminished the gemcitabine-triggered cell death

Compound: CN(C)Cc1cccc(-c2ccc3[nH]c(=O)c4ccccc4c3c2)c1 [TR-033, 2-{3-[(Dimethylamino)methyl]phenyl}phenanthridin-6(5H)-One]
- PRMT1 activity compared to the solvent-treated activity of 100% (FLAG-tagged PRMT1; 100 μM compound): 215–225%
- effect on PRMT1 activity (in words) (FLAG-tagged PRMT1; 100 μM compound): significantly increased PRMT1 activity
- activation at 100 µM (FLAG-tagged PRMT1; [1]): ≥ 60%
- global arginine methylation (ADMA) in cells (ADMA in PANC-1 cells): did not produce consistent effects
- gemcitabine-induced apoptosis, AV/PI flow cytometry, co-treatment (PANC-1 cells): rather diminished the gemcitabine-triggered cell death

Compound: CN(C)Cc1cccc(CN/C=C2\C(=O)NC(=O)c3ccccc32)c1.Cl [TR-07, (Z)-1-[3-({[(1,3-Dioxo-2,3-dihydroisoquinolin-4(1H)-lidene)methyl]amino}methyl)phenyl]-N,N-dimethylmethanaminium chloride]
- enhancement (increase) of PRMT1 enzymatic activity (FLAG-tagged PRMT1; [1]): +45%
- Efficacy ±Δ% (PRMT1) (FLAG-tagged PRMT1; Table 1, 100 μM compound, mean % difference of activity vs solvent control (100%), - inhibition, + activation, n = 3): +45%
- Efficacy ±∆% (PRMT1) (FLAG-tagged PRMT1; Table S3, 100 µM compound, mean % difference vs solvent control (100%), n≥3): +45%
- pEC50 (FLAG-tagged PRMT1; read-out: half-maximal effective concentration (EC50) for PRMT1): 3.97
- global arginine methylation (ADMA) in cells (ADMA in PANC-1 cells): concentration-dependent increase in global arginine methylation
- apoptosis, AV/PI flow cytometry, single agent (PANC-1 cells): did not significantly induce apoptosis
- gemcitabine-induced apoptosis, AV/PI flow cytometry, co-treatment (PANC-1 cells): significant increase in the early and late apoptotic stages
